Measurements: US4476319A, “P-Chlorophenoxyacetic acid derivative, its method of preparation, the pharmaceutical compositions containing it and its use in medicine” (Sociedad Espanola de Especialidades Farmaco-Terapeuticas …, priority 1981, dated 1984)

Columns and labels:
[1] = tested on: cataleptic condition in rats, induced by fluphenazine; assay: Anti-cataleptic activity: Morpurgo test, antagonism of fluphenazine-induced catalepsy; type: in vivo, rat
Text: This activity was the subject of Morpurgo tests (Arch. Int. Pharmacodyn, 137, 84 (1962), based on antagonizing the cataleptic condition in rats, induced by fluphenazine.

LD50 in the mouse = conditions: in vivo
[2] = tested on: learning in the conditioning cage; assay: Learning activity: conditioning cage (electric shock avoidance); type: in vivo
LD50 in the rat = conditions: in vivo
[3] = Toxicity, Irwin or "screening" multi-dimensional test; type: in vivo
[4] = tested on: loss of memory induced by electric shock; assay: Nootropa activity: protection from memory loss induced by electric shock, aquatic labyrinth (number of errors); type: in vivo, rat; conditions: rats
Method: Tests were carried out on rats using the technique estimating the loss of memory induced by electric shock, the loss of memory being determined as related to the number of errors made in seeking the outlet from an acquatic labyrinth (Giurgea C. J. Pharmacol (Paris) 3, 1, 17, *1972).

[5] = tested on: learning in the acquatic labyrinth; assay: Learning activity: learning in the acquatic labyrinth; type: in vivo
[6] = tested on: desperation behavior in mice; assay: Anti-depressant activity: desperation behavior in mice (Porsalt); type: in vivo, mouse
Method: This activity was evaluated by the method of examining the desperation behavior in mice (Porsalt, T. D., Arch. Int Pharmacodyn 229, 327 (1977).
A state of despair was induced by placing the animal in a cylinder containing water, and from which escape was impossible, the animal then finding itself obliged to treadmill continually. After a period of vigorous activity, the mouse assumes a characteristic immobile posture, which behavior is capable of reduction by the use of various types of pharmaceutical anti-depressants.

[7] = ip, i.p. (intraperitoneal route)
[8] = statement covers acquatic labyrinth and conditioning cage tests

O=C(COc1ccc(Cl)cc1)OCCNC12CC3CC(CC(C3)C1)C2 [Compound I, p-chlorophenoxyacetate of 1-aminoadamantine-2-ethanol]
Reduction of the cataleptic activity of fluphenazine, in words [1]: slightly reduced the cataleptic activity of the fluphenazine | LD50 (LD50 in the mouse; [7]): 415 mg/kg | LD50 (LD50 in the mouse; p.o. (oral route)): > 4000 mg/kg | Learning facility in the conditioning cage, in words [2, 8]: increased learning facility | Increase with respect to the control in the conditioning cage (learning facility) ([2]; vs control, p < 0.001): 14.4% | LD50 (LD50 in the rat; [7]): 360 mg/kg | LD50 (LD50 in the rat; p.o. (oral route)): > 4000 mg/kg | Toxicity: effects of non-toxic doses ([3]; non-toxic doses): no evidence as to effects of non-toxic doses | Toxicity: effects of toxic doses ([3]; toxic doses): death accompanied by trembling and clonic convulsions | Nootropa activity, in words ([4]; loss of memory by electric shock): notably active | Protection from memory loss due to electric shock (number of errors) ([4]; number of errors in acquatic labyrinth, p < 0.01): 46.5% | Decrease with respect to the control in the errors made in the acquatic labrinth (5th day) ([5]; 5th day, vs control, p < 0.01): 51.6% | Learning facility in the acquatic labyrinth, in words [5, 8]: increased learning facility | Anti-depressant effects, in words ([6]; desperation behavior): moderate anti-depressant effects | Protection with respect to the control (anti-depressant activity) ([6]; vs control, p < 0.001): 45.9%
